# Data published in ChEMBL document CHEMBL1140669, “Potent and selective CC-chemokine receptor-2 (CCR2) antagonists as a potential treatment for asthma” (Bioorg Med Chem Lett, 2007).
# Legend:
# [1] = Aqueous solubility at pH 2; type: physicochemical
# [2] = Aqueous solubility at pH 7; type: physicochemical
# [3] = Metabolic stability in human liver microsomes after 1 hr; type: ADME, Microsome; conditions: read-out: Stability
# [4] = […] bioavailability in ip dosed rat; type: ADME, organism-based; conditions: in vivo, intraperitoneal
# [5] = […] bioavailability in sc dosed rat; type: ADME, organism-based; conditions: in vivo, subcutaneous
smiles,measurement,setting,value
C[N+](C)(Cc1ccc(NC(=O)c2ccc(Cl)c(Cl)c2)cc1)C1CCOCC1 [JNJ-17166864 CATION],solubility,[1],> 7000 µg/mL
same,solubility,[2],> 7000 µg/mL
same,remaining at 1 h,[3],100%
same,bioavailability,[4],74%
same,bioavailability,[5],100%
